The test system of assay [1] is microdissected human scalp HFs. Briefly: Organ culture of microdissected human HFs with CHS: OR2A4/7 expression and HF stem cell/progeny number by quantitative (immuno)histomorphometry. Type of assay: cell-based. The following applies: 50 μM CHS vs vehicle, 6 days. As to the method:
Temporal and occipital human scalp skin was obtained from healthy donors (38-69 years old) undergoing routine face-lift surgery. Scalp skin samples were processed for HF microdissection (Edelkamp J, Gherardini J, Bertolini M, Methods to study human hair follicle growth ex vivo: human microdissected hair follicle and human full thickness skin organ culture, Methods Mol. Biol. 2154 (2020) 105-119).
Microdissected human scalp HFs were cultured at 37° C. with 5% CO2 in a minimal media of William's E media (WEM, Gibco, Life Technologies) supplemented with 2 mM of L-glutamine (Gibco), 10 ng/ml hydrocortisone (Sigma-Aldrich), 10 μg/ml insulin (Sigma-Aldrich), and 1% penicillin/streptomycin mix (Gibco) 25,26,62. After microdissection, the HFs were first incubated in WEM for 24 h for re-equilibration.
HFs after quality control (fully pigmented and presence in anagen VI phase) were randomly allocated to the different experimental groups.
After 24 h, WEM mediμm was replaced and HFs were treated with vehicle or 50 μM CHS for 6 days for (immuno) histomorphometry.
OCT-embedded samples were sectioned (6 μm thickness for HF and 7 μm thickness for skin) with a Leica cryostat. Sections obtained from the organ culture were stained using OR2A4/7 and integrin α-6 antibodies. A double-staining, […] wa salso performed. Sections without primary antibody were used as negative control. […]
Staining intensity was evaluated in well-defined reference areas by quantitative (immuno-) histomorphometry (Fischer T W, et al. Differential effects of caffeine on hair shaft elongation, matrix and outer root sheath keratinocyte proliferation, and transforming growth factor-B2/insulin-like growth factor-1-mediated regulation of the hair cycle in male and female human hair follicles in vitro. Br. J. Dermatol. 2014;171:1031-1043. doi: 10.1111/bjd.13114.; Samuelov L, et al. P-cadherin regulates human hair growth and cycling via canonical Wnt signaling and transforming growth factor-62. J. Invest. […]

Assay [2] concerns OR2A4/7. As to conditions: screening approach, Tsai et al. 2017; cited from earlier work.
Assay [3] deals with microdissected human scalp HFs. Nature of the assay: Organ culture of microdissected HFs with CHS: hair cycle staging and hair matrix keratinocyte proliferation (Ki-67/TUNEL, Masson Fontana). The assay is classed as cell-based. As to conditions: 50 μM CHS vs vehicle, 6 days. An excerpt: Temporal and occipital human scalp skin was obtained from healthy donors (38-69 years old) undergoing routine face-lift surgery. Scalp skin samples were processed for HF microdissection (Edelkamp J, Gherardini J, Bertolini M, Methods to study human hair follicle growth ex vivo: human microdissected hair follicle and human full thickness skin organ culture, Methods Mol. Biol. 2154 (2020) 105-119). […]
OCT-embedded samples were sectioned (6 μm thickness for HF and 7 μm thickness for skin) with a Leica cryostat. […] Images were taken using a Keyence fluorescence microscope BZ9100 (Osaka, Japan) maintaining a constant set exposure time throughout imaging for further analysis.
HFs were microscopically evaluated for the hair cycle staging analysis using Masson-Fontana histochemistry and Ki-67/TUNEL immunostainings (Langan EA, et al. Human hair follicle organ culture: theory, application and perpsectives. Exp. Dermatol. 2015;24:903-911. doi: 10.1111/exd.12836; Kloepper JE, et al. Methods in hair research: how to objectively distinguish between anagen and catagen in human hair follicle organ culture. Exp. Dermatol. 2010;19:305-312. doi: 10.1111/j.1600-0625.2009.00939.x;). […]

Assay [4] deals with OR2A4/7. Briefly: Intracellular Ca2+ signals in human melanocytes. Type of assay: cell-based.

Each structure is given as a SMILES string. Entries after “also recorded” stand apart in the source; their conditions may differ.

With `O=C(OC1CCCCC1)c1ccccc1O` [CHS, cyclohexyl salicylate], in assay [1] (ex vivo HFs (FIG. 2)), the “OR2A4/7 protein expression in the HF bulb” value is reported as “receptor downregulation”. Further, in assay [1] (ex vivo HFs (FIG. 3a)), the “K15+ stem cells in the basal layer of the bulge” value is listed as “did not seem to impact; also recorded: No differences”. Moreover, the “CD34+ cells in the suprabulbar ORS” value in assay [1] (ex vivo HFs (FIG. 3b)) is “significantly increased”. The “agonism at OR2A4/7” value with OR2A4/7 [2] is “specific agonist”. In addition, the “HFs in anagen (hair cycle staging)” value in assay [3] (ex vivo HFs (FIG. 4a)) is listed as “prolongs anagen; also recorded: increase”. In addition, in assay [3] (ex vivo HFs (FIG. 4b)), the “hair matrix keratinocyte proliferation (Ki-67)” value is given as “induces hair matrix keratinocyte proliferation”. Moreover, the “intracellular Ca2+ signals” value with OR2A4/7 [4] is “elicited transient intracellular Ca2+ signals”.
